Experiments:
surinam grass = assay: Test B pre/postemergence surinam grass; assay type: in vivo, Brachiaria decumbens
Procedure, shortened: (§1)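 Test chemicals in a non-phytotoxic solvent mixture with surfactant were sprayed preemergence onto planted seeds and postemergence onto plants 2 to 18 cm tall (1- to 4-leaf stage). After twelve to sixteen days in a greenhouse, injury was visually rated against untreated controls from 0 (no effect) to 10 (complete control).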

corn = assay: Test B pre/postemergence corn; assay type: in vivo, Zea mays
Procedure, shortened: as §1

velvetleaf = assay: Test B pre/postemergence velvetleaf; assay type: in vivo, Abutilon theophrasti
Procedure, shortened: as §1

giant foxtail = assay: Test B pre/postemergence giant foxtail; assay type: in vivo, Setaria faberii
Procedure, shortened: as §1

rape = assay: Test B pre/postemergence rape; assay type: in vivo, Brassica napus
Procedure, shortened: as §1

bedstraw = assay: Test B pre/postemergence bedstraw; assay type: in vivo, Galium aparine
Procedure, shortened: as §1

blackgrass = assay: Test B pre/postemergence blackgrass; assay type: in vivo, Alopecurus myosuroides
Procedure, shortened: as §1

morningglory = assay: Test B pre/postemergence morningglory; assay type: in vivo, Ipomoea hederacea
Procedure, shortened: as §1

cocklebur = assay: Test B pre/postemergence cocklebur; assay type: in vivo, Xanthium strumarium
Procedure, shortened: as §1

pigweed = assay: Test B pre/postemergence pigweed; assay type: in vivo, Amaranthus retroflexus
Procedure, shortened: as §1

soybean = assay: Test B pre/postemergence soybean; assay type: in vivo, Glycine max
Procedure, shortened: as §1

purple nutsedge = assay: Test B pre/postemergence purple nutsedge; assay type: in vivo, Cyperus rotundus
Procedure, shortened: as §1

wheat = assay: Test B pre/postemergence wheat; assay type: in vivo, Triticum aestivum
Procedure, shortened: as §1

sugar beet = assay: Test B pre/postemergence sugar beet; assay type: in vivo, Beta vulgaris
Procedure, shortened: as §1

crabgrass = assay: Test B pre/postemergence crabgrass; assay type: in vivo, Digitaria sanguinalis
Procedure, shortened: as §1

wild oat = assay: Test B pre/postemergence wild oat; assay type: in vivo, Avena fatua
Procedure, shortened: as §1

[1] = Postemergence, Rate 62 g/ha, scale 0 to 10, 0 is no effect, 10 is complete control
[2] = Postemergence, Rate 125 g/ha, scale of 0 to 10 where 0 is no effect and 10 is complete control
[3] = Postemergence, Rate 250 g/ha, scale of 0 to 10, 0 is no effect, 10 is complete control
[4] = Postemergence, Rate 500 g/ha, scale of 0 to 10 where 0 is no effect and 10 is complete control
[5] = Preemergence, Rate 62 g/ha, scale of 0 to 10 where 0 is no effect and 10 is complete control
[6] = Preemergence, Rate 125 g/ha, scale of 0 to 10 where 0 is no effect and 10 is complete control
[7] = Preemergence, Rate 250 g/ha, scale 0 to 10 (0 no effect, 10 complete control)
[8] = Preemergence, Rate 500 g/ha, scale of 0 to 10 where 0 is no effect and 10 is complete control

C=C(Cn1c(=O)on(C(=O)N(c2ccccc2)C(C)C)c1=O)C(C)(C)C [Compound 648]
Plant response rating, B. signalgrass (surinam grass; [1]): 0
Plant response rating, B. signalgrass (surinam grass; [2]): 0
B. signalgrass plant response rating (surinam grass; [3]): 0
Plant response rating, B. signalgrass (surinam grass; [4]): 0
B. signalgrass plant response rating (surinam grass; [5]): 0
B. signalgrass plant response rating (surinam grass; [6]): 0
Plant response rating, B. signalgrass (surinam grass; [7]): 0
Plant response rating, B. signalgrass (surinam grass; [8]): 5
Plant response rating, Corn (corn; [1]): 0
Corn plant response rating (corn; [2]): 0
Corn plant response rating (corn; [3]): 0
Plant response rating, Corn (corn; [4]): 0
Corn plant response rating (corn; [5]): 0
Corn plant response rating (corn; [6]): 0
Plant response rating, Corn (corn; [7]): 0
Plant response rating, Corn (corn; [8]): 0
Plant response rating, Velvetleaf (velvetleaf; [1]): 0
Velvetleaf plant response rating (velvetleaf; [2]): 0
Velvetleaf plant response rating (velvetleaf; [5]): 0
Velvetleaf plant response rating (velvetleaf; [6]): 0
Plant response rating, Velvetleaf (velvetleaf; [7]): 0
Plant response rating, Velvetleaf (velvetleaf; [8]): 0
Plant response rating, Giant foxtail (giant foxtail; [1]): 0
Giant foxtail plant response rating (giant foxtail; [2]): 0
Giant foxtail plant response rating (giant foxtail; [3]): 0
Plant response rating, Giant foxtail (giant foxtail; [4]): 3
Giant foxtail plant response rating (giant foxtail; [5]): 5
Giant foxtail plant response rating (giant foxtail; [6]): 9
Plant response rating, Giant foxtail (giant foxtail; [7]): 9
Plant response rating, Giant foxtail (giant foxtail; [8]): 9
Plant response rating, Rape (rape; [1]): 0
Rape plant response rating (rape; [2]): 0
Plant response rating, Rape (rape; [4]): 2
Rape plant response rating (rape; [5]): 0
Rape plant response rating (rape; [6]): 0
Plant response rating, Rape (rape; [7]): 0
Plant response rating, Rape (rape; [8]): 0
Bedstraw plant response rating (bedstraw; [2]): 0
Bedstraw plant response rating (bedstraw; [5]): 0
Bedstraw plant response rating (bedstraw; [6]): 0
Plant response rating, Bedstraw (bedstraw; [7]): 0
Plant response rating, Bedstraw (bedstraw; [8]): 0
Plant response rating, Blackgrass (blackgrass; [1]): 0
Blackgrass plant response rating (blackgrass; [2]): 0
Blackgrass plant response rating (blackgrass; [3]): 0
Plant response rating, Blackgrass (blackgrass; [4]): 0
Blackgrass plant response rating (blackgrass; [5]): 0
Blackgrass plant response rating (blackgrass; [6]): 0
Plant response rating, Blackgrass (blackgrass; [7]): 2
Plant response rating, Blackgrass (blackgrass; [8]): 5
Plant response rating, Morningglory (morningglory; [1]): 6
Morningglory plant response rating (morningglory; [2]): 10
Morningglory plant response rating (morningglory; [3]): 10
Plant response rating, Morningglory (morningglory; [4]): 10
Morningglory plant response rating (morningglory; [5]): 0
Morningglory plant response rating (morningglory; [6]): 0
Plant response rating, Morningglory (morningglory; [7]): 0
Plant response rating, Morningglory (morningglory; [8]): 0
Plant response rating, Cocklebur (cocklebur; [1]): 0
Cocklebur plant response rating (cocklebur; [2]): 0
Cocklebur plant response rating (cocklebur; [3]): 0
Plant response rating, Cocklebur (cocklebur; [4]): 2
Cocklebur plant response rating (cocklebur; [5]): 0
Cocklebur plant response rating (cocklebur; [6]): 0
Plant response rating, Cocklebur (cocklebur; [8]): 0
Plant response rating, Redroot pigweed (pigweed; [1]): 0
Redroot pigweed plant response rating (pigweed; [2]): 3
Redroot pigweed plant response rating (pigweed; [5]): 0
Redroot pigweed plant response rating (pigweed; [6]): 0
Plant response rating, Redroot pigweed (pigweed; [7]): 0
Plant response rating, Redroot pigweed (pigweed; [8]): 2
Plant response rating, Soybean (soybean; [1]): 0
Soybean plant response rating (soybean; [2]): 2
Soybean plant response rating (soybean; [5]): 0
Soybean plant response rating (soybean; [6]): 0
Plant response rating, Soybean (soybean; [7]): 0
Plant response rating, Soybean (soybean; [8]): 0
Plant response rating, Nutsedge (purple nutsedge; [1]): 0
Nutsedge plant response rating (purple nutsedge; [2]): 0
Plant response rating, Nutsedge (purple nutsedge; [4]): 0
Nutsedge plant response rating (purple nutsedge; [5]): 0
Nutsedge plant response rating (purple nutsedge; [6]): 0
Plant response rating, Nutsedge (purple nutsedge; [7]): 0
Plant response rating, Nutsedge (purple nutsedge; [8]): 0
Plant response rating, Wheat (wheat; [1]): 0
Wheat plant response rating (wheat; [2]): 0
Wheat plant response rating (wheat; [5]): 0
Wheat plant response rating (wheat; [6]): 0
Plant response rating, Wheat (wheat; [7]): 0
Plant response rating, Wheat (wheat; [8]): 0
Plant response rating, Sugarbeets (sugar beet; [1]): 0
Sugarbeets plant response rating (sugar beet; [2]): 0
Sugarbeets plant response rating (sugar beet; [5]): 0
Sugarbeets plant response rating (sugar beet; [6]): 0
Plant response rating, Sugarbeets (sugar beet; [7]): 0
Plant response rating, Sugarbeets (sugar beet; [8]): 0
Plant response rating, Crabgrass (crabgrass; [1]): 0
Crabgrass plant response rating (crabgrass; [2]): 0
Crabgrass plant response rating (crabgrass; [3]): 0
Plant response rating, Crabgrass (crabgrass; [4]): 7
Crabgrass plant response rating (crabgrass; [5]): 0
Crabgrass plant response rating (crabgrass; [6]): 8
Plant response rating, Crabgrass (crabgrass; [7]): 9
Plant response rating, Crabgrass (crabgrass; [8]): 9
Plant response rating, Wild oats (wild oat; [1]): 0
Wild oats plant response rating (wild oat; [2]): 0
Wild oats plant response rating (wild oat; [5]): 0
Wild oats plant response rating (wild oat; [6]): 0
Plant response rating, Wild oats (wild oat; [7]): 0
Plant response rating, Wild oats (wild oat; [8]): 0
